Molecules are shown by their SMILES. Where only a bound is given, the exact number is not on record here.

For the first assay, the system named is symmetric di-methyl arginine in Z-138 cells. The assay can be described thus: Z-138 Methylation Assay (In Cell Western for symmetric di-methyl arginine and DNA content). The format is cell-based. The conditions noted are these: read-out: ICW EC50. From the text:
[formula] Where top and bottom are the normally allowed to float, but may be fixed at 100 or 0 respectively in a 3-parameter fit. The Hill Coefficient normally allowed to float but may also be fixed at 1 in a 3-parameter fit. Y is the % inhibition and X is the compound concentration.
RPMI/Glutamax medium, penicillin-streptomycin, heat inactivated fetal bovine serum, and D-PBS were purchased from Life Technologies, Grand Island, N.Y., USA. Odyssey blocking buffer, 800CW goat anti-rabbit IgG (H+L) antibody, and Licor Odyssey infrared scanner were purchased from Licor Biosciences, Lincoln, Nebr., USA. Symmetric di-methyl arginine antibody was purchased from EMD Millipore, Billerica, Mass., USA. 16% Paraformaldehyde was purchased from Electron Microscopy Sciences, Hatfield, Pa., USA.
Cell Treatment, in Cell Western (ICW) for Detection of Symmetric Di-Methyl Arginine and DNA Content.
Z-138 cells were seeded in assay medium at a concentration of 50,000 cells per mL to a 384-well cell culture plate with 50 μL per well. Compound (100 nL) from 384 well source plates was added directly to 384 well cell plate. Plates were incubated at 37° C., 5% CO2 for 96 hours. […] Plates were incubated at room temperature for 30 minutes then incubated at 37° C., 5% CO2 for 5 hours. After the incubation, 40 μL per well of 8% paraformaldehyde in PBS (16% paraformaldahyde was diluted to 8% in PBS) was added to each plate and incubated for 30 minutes. […] Next 30 μL per well of Odyssey blocking buffer were added to each plate and incubated 1 hour at room temperature. […]
First, the ratio for each well was determined by:
Each plate included fourteen control wells of DMSO only treatment (minimum inhibition) as well as fourteen control wells for maximum inhibition treated with 3 μM of a reference compound (Background wells). The average of the ratio values for each control type was calculated and used to determine the percent inhibition for each test well in the plate. […] Percent inhibition was determined and IC50 curves were generated using triplicate wells per concentration of compound.
What is called EC50 is the concentration at which the effect is half-maximal. With `CN1CCC(Oc2cccc(C(=O)NCC(O)CN3CCc4ccccc4C3)c2)C1` (centres unmarked) [Compound 134], the EC50 was 0.101 to 1 µM.

The target in the next assay is PRMT5/MEP50 (Homo sapiens (Human), UniProt O14744). Briefly: PRMT5 Biochemical Assay (PRMT5/MEP50 enzyme assay on peptide substrate, 3H-SAM Flashplate). To be noted: PRMT5/MEP50 biochemical assay; read-out: Biochemical IC50.
Chain of PRMT5/MEP50 (O14744 other isoform, or with tags, fused parts or gaps): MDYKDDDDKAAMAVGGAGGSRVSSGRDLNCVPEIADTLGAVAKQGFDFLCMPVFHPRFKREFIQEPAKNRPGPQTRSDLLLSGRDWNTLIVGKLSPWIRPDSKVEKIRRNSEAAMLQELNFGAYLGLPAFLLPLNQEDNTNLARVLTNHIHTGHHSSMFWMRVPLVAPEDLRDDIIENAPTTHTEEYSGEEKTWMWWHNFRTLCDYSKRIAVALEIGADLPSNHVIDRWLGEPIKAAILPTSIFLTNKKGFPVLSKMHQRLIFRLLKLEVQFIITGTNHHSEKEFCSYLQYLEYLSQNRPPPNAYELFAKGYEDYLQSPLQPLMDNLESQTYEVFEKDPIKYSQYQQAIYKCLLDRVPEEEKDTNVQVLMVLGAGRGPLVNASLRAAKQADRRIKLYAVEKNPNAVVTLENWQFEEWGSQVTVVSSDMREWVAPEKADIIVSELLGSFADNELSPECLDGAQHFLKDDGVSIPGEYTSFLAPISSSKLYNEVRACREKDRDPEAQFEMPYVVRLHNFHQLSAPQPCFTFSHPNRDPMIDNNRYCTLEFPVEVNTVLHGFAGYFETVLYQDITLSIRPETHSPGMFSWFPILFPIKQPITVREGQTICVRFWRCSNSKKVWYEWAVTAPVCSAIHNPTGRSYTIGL
Chain of PRMT5/MEP50 (Q9BQA1 other isoform, or with tags, fused parts or gaps partner): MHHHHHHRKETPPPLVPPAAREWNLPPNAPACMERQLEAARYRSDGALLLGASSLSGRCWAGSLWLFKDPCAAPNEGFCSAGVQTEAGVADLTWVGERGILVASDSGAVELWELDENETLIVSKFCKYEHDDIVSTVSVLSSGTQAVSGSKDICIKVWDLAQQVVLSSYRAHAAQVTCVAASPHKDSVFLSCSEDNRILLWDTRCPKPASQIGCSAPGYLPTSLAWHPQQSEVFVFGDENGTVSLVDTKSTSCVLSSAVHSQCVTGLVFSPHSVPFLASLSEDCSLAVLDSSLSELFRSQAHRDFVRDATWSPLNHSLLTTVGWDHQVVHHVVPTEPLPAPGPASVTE
The term IC50 denotes the concentration that gives 50% inhibition. `CN1CCC(Oc2cccc(C(=O)NCC(O)CN3CCc4ccccc4C3)c2)C1` (centres unmarked) [Compound 134]: the IC50 is less than 0.1 µM.

With `CS(=O)(=O)N1CC(Nc2cc(C(=O)NC[C@H](O)CN3CCc4ccccc4C3)ncn2)C1` [Compound 283], the IC50 is less than 0.1 µM.

Turning to `CC(=O)N1CC(Nc2cc(C(=O)NC[C@H](O)CN3CCc4ccccc4C3)ncn2)C1` [Compound 284, (S)-6-((1-acetylazetidin-3-yl)amino)-N-(3-(3,4-dihydroisoquinolin-2(1H)-yl)-2-hydroxypropyl)pyrimidine-4-carboxamide], the IC50 is less than 0.1 µM.

On to `O=C(NC[C@H](O)CN1CCc2ccccc2C1)c1cc(OC2CCN(CC(F)(F)F)CC2)ncn1` [Compound 285], for which the IC50 fell in the range of 0.101 to 1 µM.

In the case of `CS(=O)(=O)N1CCC(Oc2cc(C(=O)NC[C@H](O)CN3CCc4ccccc4C3)ncn2)CC1` [Compound 286], the IC50 is less than 0.1 µM.

For `CC(=O)N1CCC(Oc2cc(C(=O)NC[C@H](O)CN3CCc4ccccc4C3)ncn2)CC1` [Compound 287], the IC50 was less than 0.1 µM.

As to `CN1CCC(Oc2cncc(C(=O)NC[C@H](O)CN3CCc4ccccc4C3)c2)CC1` [Compound 288], the 50% inhibitory concentration (IC50) is less than 0.1 µM.

With `O=C(NC[C@H](O)CN1CCc2ccccc2C1)c1cncc(OC2CCN(CC(F)(F)F)CC2)c1` [Compound 289], the IC50 was in the range of 0.101 to 1 µM.

On to `CS(=O)(=O)N1CCC(Oc2cncc(C(=O)NC[C@H](O)CN3CCc4ccccc4C3)c2)CC1` [Compound 290], for which the IC50 is less than 0.1 µM.

With `CC(=O)N(C)CCN(C)c1cc(C(=O)NC[C@H](O)CN2CCc3ccccc3C2)ccn1` [Compound 291], the IC50 was less than 0.1 µM.

As for `CN1CCC(CNc2cc(C(=O)NC[C@H](O)CN3CCc4ccccc4C3)ccn2)CC1` [Compound 292], the IC50 is less than 0.1 µM.

On to `CC(=O)N1CC[C@@H](Nc2cccc(C(=O)NC[C@H](O)CN3CCc4ccccc4C3)c2)C1` [Compound 293], for which the IC50 is less than 0.1 µM.

On to `O=C(NC[C@H](O)CN1CCc2ccccc2C1)c1ccc2[nH]cnc2c1` [Compound 294], for which the IC50 lay within 0.101 to 1 µM.

Take `O=C(NC[C@H](O)CN1CCc2ccccc2C1)c1cccc2ccccc12` [Compound 295]: the IC50 fell in the range of 0.101 to 1 µM.

As for `O=C(NC[C@H](O)CN1CCc2ccccc2C1)c1cc2c(F)cccc2[nH]1` [Compound 296], the IC50 was less than 0.1 µM.

For the molecule `CS(=O)(=O)N1CCC(Nc2cc(C(=O)NC[C@H](O)CN3CCc4ccccc4C3)ncn2)CC1` [Compound 297], the IC50 is less than 0.1 µM.

Consider `O=C(NC[C@H](O)CN1CCc2ccccc2C1)c1cncc(NC2CCOCC2)c1` [Compound 298], for which the IC50 is less than 0.1 µM.

Take `O=C(NC[C@H](O)CN1CCc2ccccc2C1)c1cncc(NC2COC2)c1` [Compound 299]: the IC50 is less than 0.1 µM.

As to `O=C(NC[C@H](O)CN1CCc2ccccc2C1)c1cncc(NC2CCN(CC(F)(F)F)CC2)c1` [Compound 300], the IC50 is less than 0.1 µM.

In the case of `CS(=O)(=O)N1CCC(Nc2cncc(C(=O)NC[C@H](O)CN3CCc4ccccc4C3)c2)CC1` [Compound 301], the IC50 is less than 0.1 µM.

On to `CC(=O)N1CCC(Nc2cncc(C(=O)NC[C@H](O)CN3CCc4ccccc4C3)c2)CC1` [Compound 302], for which the IC50 is less than 0.1 µM.

In the case of `O=C(NC[C@H](O)CN1CCc2ccccc2C1)c1cncc(NC2CCN(CC(F)(F)F)C2)c1` (some centres unmarked) [Compound 303], the IC50 is less than 0.1 µM.

With `O=C(NC[C@H](O)CN1CCc2ccccc2C1)c1ccc2[nH]nnc2c1` [Compound 305], the IC50 was 0.101 to 1 µM.

On to `O=C(NC[C@H](O)CN1CCc2ccccc2C1)c1ccnc(NC2CCOC2)c1` (some centres unmarked) [Compound 306], for which the IC50 was less than 0.1 µM.

Consider `Cc1cnc(NC2CCOCC2)cc1C(=O)NC[C@H](O)CN1CCc2ccccc2C1` [Compound 307], for which the IC50 was less than 0.1 µM.

In the case of `Cc1cnc(NC2CCOC2)cc1C(=O)NC[C@H](O)CN1CCc2ccccc2C1` (some centres unmarked) [Compound 308], the IC50 is less than 0.1 µM.

Take `Cc1cnc(OC2CCOCC2)cc1C(=O)NC[C@H](O)CN1CCc2ccccc2C1` [Compound 309]: the IC50 lay in the range of 0.101 to 1 µM.

As to `Cc1ncc(NC2CCNC2)cc1C(=O)NC[C@H](O)CN1CCc2ccccc2C1` (some centres unmarked) [Compound 310], the IC50 fell in the range of 0.101 to 1 µM.

With `Cn1nc(NC2CCOCC2)cc1C(=O)NCC(O)CN1CCc2ccccc2C1` (centres unmarked) [Compound 311], the IC50 is less than 0.1 µM.

With `Cn1nc(C(=O)NCC(O)CN2CCc3ccccc3C2)cc1NC1CCOCC1` (centres unmarked) [Compound 312], the IC50 lay within 0.101 to 1 µM.

On to `CNCCNc1cc(C(=O)NC[C@H](O)CN2CCc3ccccc3C2)ccn1` [Compound 314], for which the IC50 is less than 0.1 µM.

As for `CC(=O)N(C)CCNc1cc(C(=O)NC[C@H](O)CN2CCc3ccccc3C2)ccn1` [Compound 315], the IC50 is less than 0.1 µM.

Take `O=C(NC[C@H](O)CN1CCc2ccccc2C1)c1ccnc(NCCNCC(F)(F)F)c1` [Compound 316]: the IC50 is less than 0.1 µM.

In the case of `O=C(NC[C@H](O)CN1CCc2ccccc2C1)c1cnc2ccccc2c1` [Compound 317], the IC50 is less than 0.1 µM.

In the case of `O=C(NC[C@H](O)CN1CCc2ccccc2C1)c1ccc2cc(O)ccc2c1` [Compound 318], the IC50 is less than 0.1 µM.

In the case of `O=C(NC[C@H](O)CN1CCc2ccccc2C1)c1nc2cc(Br)ccc2[nH]1` [Compound 319], the IC50 is less than 0.1 µM.

For `NCCNc1cc(C(=O)NC[C@H](O)CN2CCc3ccccc3C2)ccn1` [Compound 320], the IC50 is less than 0.1 µM.

For the molecule `O=C(NC[C@H](O)CN1CCc2ccccc2C1)c1ccc(OC2CCN(CCO)CC2)cc1` [Compound 321], the IC50 is less than 0.1 µM.

As to `CC(C)(C)C(=O)N1CCC(Oc2ccc(C(=O)NC[C@H](O)CN3CCc4ccccc4C3)cc2)CC1` [Compound 322], the IC50 is less than 0.1 µM.

Take `O=C(NC[C@H](O)CN1CCc2ccccc2C1)c1ccnc(OC2CCOCC2)c1` [Compound 323]: the IC50 is less than 0.1 µM.

On to `CN(c1cc(C(=O)NC[C@H](O)CN2CCc3ccccc3C2)ccn1)C1CCOCC1` [Compound 324], for which the IC50 is less than 0.1 µM.

For `Cn1nccc1Nc1cc(C(=O)NC[C@H](O)CN2CCc3ccccc3C2)ccn1` [Compound 325], the IC50 is less than 0.1 µM.

Take `CC(C)(C)c1cc(Nc2cc(C(=O)NC[C@H](O)CN3CCc4ccccc4C3)ccn2)n[nH]1` [Compound 326]: the IC50 is less than 0.1 µM.

Consider `O=C(NC[C@H](O)CN1CCc2ccccc2C1)c1c(O)ccc2ccccc12` [Compound 327], for which the IC50 is 0.101 to 1 µM.

Regarding `O=C(NC[C@H](O)CN1CCc2ccccc2C1)c1ccc2c(c1O)NCCC2` [Compound 328], the IC50 was 1 to 10 µM.

`COCCN1CCC(Oc2ccc(C(=O)NC[C@H](O)CN3CCc4ccccc4C3)cc2)CC1` [Compound 329]: the IC50 is less than 0.1 µM.

Consider `O=C(NC[C@H](O)CN1CCc2ccccc2C1)c1ccc(OC2CCN(Cc3ccccc3)CC2)cc1` [Compound 330], for which the IC50 was less than 0.1 µM.

Turning to `O=C(NC[C@H](O)CN1CCc2ccccc2C1)c1ccc(OC2CCN(Cc3ccncc3)CC2)cc1` [Compound 331], the IC50 is less than 0.1 µM.

With `COc1cc(C(=O)NC[C@H](O)CN2CCc3ccccc3C2)cc(NC2CCC2)n1` [Compound 332], the IC50 was less than 0.1 µM.

As to `CN(c1cc(C(=O)NC[C@H](O)CN2CCc3ccccc3C2)ccn1)C1CCC1` [Compound 333], the IC50 is less than 0.1 µM.

Regarding `O=C(NC[C@H](O)CN1CCc2ccccc2C1)c1ccnc(NC2CCCC2)c1` [Compound 334], the IC50 was less than 0.1 µM.

As to `O=C(NC[C@H](O)CN1CCc2ccccc2C1)c1ccnc(NC2CCCCC2)c1` [Compound 335], the IC50 is less than 0.1 µM.

The values are drawn from patent US9675614B2, “PRMT5 inhibitors and uses thereof” (Epizyme, Inc., priority 2012, dated 2017).
